Assay [1] concerns the target 5'-AMP-activated protein kinase catalytic subunit alpha-2 (Homo sapiens) (UniProt P54646).
Assay [2] addresses Calcium/calmodulin-dependent protein kinase type 1G (Homo sapiens) (UniProt Q96NX5).
In assay [3] the target is Calcium/calmodulin-dependent protein kinase type II subunit delta (Homo sapiens) (UniProt Q13557).
Assay [4] deals with Calcium/calmodulin-dependent protein kinase type II subunit gamma (Homo sapiens) (UniProt Q13555).
Assay [5] has as its target T1, Calcium/calmodulin-dependent protein kinase type IV (Homo sapiens) (UniProt Q16566).
T1 sequence (whole entry): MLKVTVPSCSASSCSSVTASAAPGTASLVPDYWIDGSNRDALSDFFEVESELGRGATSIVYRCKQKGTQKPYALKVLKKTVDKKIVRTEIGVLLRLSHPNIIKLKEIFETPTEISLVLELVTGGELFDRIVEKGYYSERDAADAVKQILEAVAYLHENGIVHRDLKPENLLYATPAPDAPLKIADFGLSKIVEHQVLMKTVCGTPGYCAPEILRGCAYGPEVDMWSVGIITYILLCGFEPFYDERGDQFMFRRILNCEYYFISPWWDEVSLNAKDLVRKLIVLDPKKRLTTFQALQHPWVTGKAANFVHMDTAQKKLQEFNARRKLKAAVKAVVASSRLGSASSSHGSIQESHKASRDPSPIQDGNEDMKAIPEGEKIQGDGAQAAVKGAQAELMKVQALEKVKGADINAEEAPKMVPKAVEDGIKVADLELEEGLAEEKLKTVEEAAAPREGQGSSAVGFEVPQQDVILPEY

Assay [6] deals with Calcium/calmodulin-dependent protein kinase kinase 2 (Homo sapiens, UniProt Q96RR4).
Assay [7] deals with Dual specificity protein kinase CLK3 (Homo sapiens) (UniProt P49761).
The target of assay [8] is Casein kinase I isoform gamma-1 (Homo sapiens) (UniProt Q9HCP0).
Casein kinase I isoform gamma-1 (Homo sapiens), sequence (Q9HCP0 whole entry, looked up, canonical isoform): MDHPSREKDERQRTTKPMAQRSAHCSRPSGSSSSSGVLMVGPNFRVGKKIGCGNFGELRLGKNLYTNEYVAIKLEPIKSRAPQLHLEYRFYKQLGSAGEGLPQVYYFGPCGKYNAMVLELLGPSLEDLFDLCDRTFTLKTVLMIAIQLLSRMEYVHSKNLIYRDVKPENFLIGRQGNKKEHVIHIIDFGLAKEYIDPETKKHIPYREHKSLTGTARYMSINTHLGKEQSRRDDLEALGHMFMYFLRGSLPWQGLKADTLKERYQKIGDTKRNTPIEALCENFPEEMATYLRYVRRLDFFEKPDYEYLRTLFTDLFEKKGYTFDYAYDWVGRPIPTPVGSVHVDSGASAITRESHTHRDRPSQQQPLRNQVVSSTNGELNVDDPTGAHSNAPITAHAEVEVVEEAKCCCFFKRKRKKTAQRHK
The target of assay [9] is Casein kinase I isoform gamma-2 (Homo sapiens) (UniProt P78368).
Casein kinase I isoform gamma-2 (Homo sapiens), sequence (P78368 whole entry, looked up, canonical isoform): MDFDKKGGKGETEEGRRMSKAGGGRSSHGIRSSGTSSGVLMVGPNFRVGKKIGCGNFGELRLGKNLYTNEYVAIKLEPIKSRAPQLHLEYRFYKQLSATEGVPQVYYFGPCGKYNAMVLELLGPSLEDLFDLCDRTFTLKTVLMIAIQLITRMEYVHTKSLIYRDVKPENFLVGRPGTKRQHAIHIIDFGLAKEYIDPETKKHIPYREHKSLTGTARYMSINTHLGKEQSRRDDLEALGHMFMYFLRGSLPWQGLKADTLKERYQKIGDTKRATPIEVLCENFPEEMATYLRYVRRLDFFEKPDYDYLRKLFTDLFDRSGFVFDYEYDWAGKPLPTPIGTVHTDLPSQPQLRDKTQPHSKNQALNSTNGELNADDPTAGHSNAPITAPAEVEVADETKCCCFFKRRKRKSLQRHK
Assay [10] addresses Casein kinase I isoform gamma-3 (Homo sapiens) (UniProt Q9Y6M4).
Assay [11] has as its target Glycogen synthase kinase-3 beta (Homo sapiens, UniProt P49841).
Assay [12] deals with Tyrosine-protein kinase JAK1 (Homo sapiens) (UniProt P23458).
Tyrosine-protein kinase JAK1 (Homo sapiens), sequence (P23458 whole entry): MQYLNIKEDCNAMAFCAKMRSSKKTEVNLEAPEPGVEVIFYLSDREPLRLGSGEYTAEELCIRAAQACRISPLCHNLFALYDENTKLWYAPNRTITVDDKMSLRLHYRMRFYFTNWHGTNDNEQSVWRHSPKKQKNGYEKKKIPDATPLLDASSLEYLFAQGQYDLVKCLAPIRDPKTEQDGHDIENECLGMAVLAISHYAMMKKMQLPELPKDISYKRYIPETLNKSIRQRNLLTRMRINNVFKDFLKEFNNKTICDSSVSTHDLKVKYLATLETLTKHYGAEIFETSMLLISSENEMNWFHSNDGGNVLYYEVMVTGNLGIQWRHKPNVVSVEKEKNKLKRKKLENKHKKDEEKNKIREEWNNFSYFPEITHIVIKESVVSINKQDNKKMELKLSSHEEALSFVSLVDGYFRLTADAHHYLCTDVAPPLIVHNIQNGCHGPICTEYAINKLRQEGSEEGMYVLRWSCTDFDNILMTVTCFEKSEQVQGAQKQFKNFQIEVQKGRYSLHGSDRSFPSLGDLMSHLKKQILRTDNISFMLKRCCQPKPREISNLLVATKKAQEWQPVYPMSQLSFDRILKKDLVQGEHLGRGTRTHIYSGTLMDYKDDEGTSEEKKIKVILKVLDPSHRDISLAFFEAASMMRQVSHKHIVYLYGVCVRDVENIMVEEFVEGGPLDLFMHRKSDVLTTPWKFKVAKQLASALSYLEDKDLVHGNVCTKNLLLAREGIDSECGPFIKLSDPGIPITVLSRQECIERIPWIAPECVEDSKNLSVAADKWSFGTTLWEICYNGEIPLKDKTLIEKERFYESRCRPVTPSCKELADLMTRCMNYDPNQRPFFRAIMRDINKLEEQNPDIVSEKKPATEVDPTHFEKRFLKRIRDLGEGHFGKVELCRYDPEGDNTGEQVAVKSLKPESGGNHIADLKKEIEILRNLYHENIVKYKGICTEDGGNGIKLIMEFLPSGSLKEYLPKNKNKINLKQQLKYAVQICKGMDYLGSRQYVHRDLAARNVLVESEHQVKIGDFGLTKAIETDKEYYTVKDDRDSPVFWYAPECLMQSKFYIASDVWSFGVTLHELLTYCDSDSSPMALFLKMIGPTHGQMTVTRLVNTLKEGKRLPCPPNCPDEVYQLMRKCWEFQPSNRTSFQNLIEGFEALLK
In assay [13] the target is Dual specificity mitogen-activated protein kinase kinase 2 (Homo sapiens, UniProt P36507).
The target in assay [14] is Mitogen-activated protein kinase 6 (Homo sapiens) (UniProt Q16659).
The target in assay [15] is Serine/threonine-protein kinase pim-2 (Homo sapiens, UniProt Q9P1W9).
For assay [16], the target named is T2, Serine/threonine-protein kinase PLK4 (Homo sapiens) (UniProt O00444).
T2 sequence (whole entry): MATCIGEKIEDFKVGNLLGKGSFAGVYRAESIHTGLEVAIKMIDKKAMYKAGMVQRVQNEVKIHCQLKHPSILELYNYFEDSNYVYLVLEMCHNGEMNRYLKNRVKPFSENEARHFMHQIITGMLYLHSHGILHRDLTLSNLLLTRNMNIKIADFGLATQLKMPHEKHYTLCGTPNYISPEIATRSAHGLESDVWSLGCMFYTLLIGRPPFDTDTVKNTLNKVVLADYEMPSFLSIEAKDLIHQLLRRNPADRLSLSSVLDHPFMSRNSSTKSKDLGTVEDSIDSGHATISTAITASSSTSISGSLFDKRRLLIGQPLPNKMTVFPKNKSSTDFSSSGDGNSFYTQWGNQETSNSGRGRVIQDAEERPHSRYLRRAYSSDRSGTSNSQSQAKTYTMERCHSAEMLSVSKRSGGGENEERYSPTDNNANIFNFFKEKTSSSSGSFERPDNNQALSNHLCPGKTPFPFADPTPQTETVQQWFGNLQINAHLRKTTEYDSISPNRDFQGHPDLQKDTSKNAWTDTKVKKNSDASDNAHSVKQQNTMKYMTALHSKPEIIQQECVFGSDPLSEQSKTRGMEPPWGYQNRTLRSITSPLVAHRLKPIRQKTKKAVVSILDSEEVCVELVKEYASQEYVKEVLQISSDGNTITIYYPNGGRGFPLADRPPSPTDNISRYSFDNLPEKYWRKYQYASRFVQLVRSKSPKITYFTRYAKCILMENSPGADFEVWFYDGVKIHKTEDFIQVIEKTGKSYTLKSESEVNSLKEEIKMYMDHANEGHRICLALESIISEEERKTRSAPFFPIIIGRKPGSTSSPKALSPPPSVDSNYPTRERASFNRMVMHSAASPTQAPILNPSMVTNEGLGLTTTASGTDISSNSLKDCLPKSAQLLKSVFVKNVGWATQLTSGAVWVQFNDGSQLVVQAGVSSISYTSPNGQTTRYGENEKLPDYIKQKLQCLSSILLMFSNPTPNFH

The target in assay [17] is Ribosomal protein S6 kinase alpha-3 (Homo sapiens) (UniProt P51812).
Ribosomal protein S6 kinase alpha-3 (Homo sapiens), sequence (P51812 whole entry): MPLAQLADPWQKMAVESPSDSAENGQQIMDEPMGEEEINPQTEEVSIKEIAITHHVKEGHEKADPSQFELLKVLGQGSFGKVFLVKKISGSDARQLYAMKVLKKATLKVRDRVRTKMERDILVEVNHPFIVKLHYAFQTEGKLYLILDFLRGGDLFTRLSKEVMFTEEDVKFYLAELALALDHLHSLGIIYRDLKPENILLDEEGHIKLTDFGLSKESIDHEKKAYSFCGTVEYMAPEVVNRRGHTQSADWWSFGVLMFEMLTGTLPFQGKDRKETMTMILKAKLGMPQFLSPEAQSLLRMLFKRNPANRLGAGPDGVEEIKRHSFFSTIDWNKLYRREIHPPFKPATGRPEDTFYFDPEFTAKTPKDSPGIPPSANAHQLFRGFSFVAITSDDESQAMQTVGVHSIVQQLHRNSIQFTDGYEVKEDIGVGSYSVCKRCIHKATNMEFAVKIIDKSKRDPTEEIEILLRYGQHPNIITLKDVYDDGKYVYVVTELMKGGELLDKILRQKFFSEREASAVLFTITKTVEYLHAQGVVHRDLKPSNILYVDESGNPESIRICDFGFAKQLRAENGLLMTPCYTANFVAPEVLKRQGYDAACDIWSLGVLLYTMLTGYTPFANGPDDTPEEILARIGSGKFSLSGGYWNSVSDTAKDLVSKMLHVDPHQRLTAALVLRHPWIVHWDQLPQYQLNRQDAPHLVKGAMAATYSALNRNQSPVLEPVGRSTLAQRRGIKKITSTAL
For assay [18], the target named is TRAF2 and NCK-interacting protein kinase (Homo sapiens) (UniProt Q9UKE5).
In assay [19] the target is T3, Serine/threonine-protein kinase VRK1 (Homo sapiens) (UniProt Q99986).
T3 sequence (whole entry): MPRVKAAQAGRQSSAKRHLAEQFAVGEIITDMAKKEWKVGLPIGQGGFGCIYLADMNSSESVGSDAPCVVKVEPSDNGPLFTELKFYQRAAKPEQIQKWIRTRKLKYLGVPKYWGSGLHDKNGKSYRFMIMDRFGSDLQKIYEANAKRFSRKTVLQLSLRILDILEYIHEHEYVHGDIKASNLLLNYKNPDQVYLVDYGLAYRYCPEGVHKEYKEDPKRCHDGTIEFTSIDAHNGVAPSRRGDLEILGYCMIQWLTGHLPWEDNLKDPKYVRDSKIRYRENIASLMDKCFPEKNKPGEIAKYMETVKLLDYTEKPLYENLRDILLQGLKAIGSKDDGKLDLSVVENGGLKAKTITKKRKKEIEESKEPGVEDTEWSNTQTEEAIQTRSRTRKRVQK

The target of assay [20] is Serine/threonine-protein kinase 25 (Homo sapiens) (UniProt O00506).
Serine/threonine-protein kinase 25 (Homo sapiens), sequence (O00506 whole entry, looked up): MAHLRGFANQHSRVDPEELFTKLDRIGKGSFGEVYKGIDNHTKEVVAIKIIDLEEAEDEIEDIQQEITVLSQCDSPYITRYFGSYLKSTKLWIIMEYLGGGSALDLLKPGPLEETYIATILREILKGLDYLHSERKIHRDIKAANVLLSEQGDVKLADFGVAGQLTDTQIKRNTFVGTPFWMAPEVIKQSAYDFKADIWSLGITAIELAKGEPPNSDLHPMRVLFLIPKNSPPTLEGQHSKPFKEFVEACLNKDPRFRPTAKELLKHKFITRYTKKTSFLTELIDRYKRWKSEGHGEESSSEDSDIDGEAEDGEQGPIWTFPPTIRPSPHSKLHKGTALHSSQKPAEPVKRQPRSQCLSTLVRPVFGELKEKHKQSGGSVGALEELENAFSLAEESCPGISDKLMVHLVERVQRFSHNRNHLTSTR

The ΔTm is the shift of the melting midpoint relative to a reference.

Calcium/calmodulin-dependent protein kinase type 1G (Homo sapiens), sequence (Q96NX5 whole entry): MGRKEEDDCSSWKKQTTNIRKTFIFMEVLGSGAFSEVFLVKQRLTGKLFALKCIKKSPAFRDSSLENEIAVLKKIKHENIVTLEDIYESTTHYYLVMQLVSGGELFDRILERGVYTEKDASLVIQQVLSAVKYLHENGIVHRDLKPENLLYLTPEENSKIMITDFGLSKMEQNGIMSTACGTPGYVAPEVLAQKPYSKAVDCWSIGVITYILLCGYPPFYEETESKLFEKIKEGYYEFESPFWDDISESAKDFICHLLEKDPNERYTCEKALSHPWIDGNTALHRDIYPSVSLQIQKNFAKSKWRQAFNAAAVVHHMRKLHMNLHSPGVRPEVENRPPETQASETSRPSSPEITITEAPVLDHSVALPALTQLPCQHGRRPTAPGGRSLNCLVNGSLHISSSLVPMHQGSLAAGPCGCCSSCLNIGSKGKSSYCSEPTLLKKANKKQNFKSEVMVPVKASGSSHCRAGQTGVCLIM
Calcium/calmodulin-dependent protein kinase type II subunit gamma (Homo sapiens), sequence (Q13555 whole entry): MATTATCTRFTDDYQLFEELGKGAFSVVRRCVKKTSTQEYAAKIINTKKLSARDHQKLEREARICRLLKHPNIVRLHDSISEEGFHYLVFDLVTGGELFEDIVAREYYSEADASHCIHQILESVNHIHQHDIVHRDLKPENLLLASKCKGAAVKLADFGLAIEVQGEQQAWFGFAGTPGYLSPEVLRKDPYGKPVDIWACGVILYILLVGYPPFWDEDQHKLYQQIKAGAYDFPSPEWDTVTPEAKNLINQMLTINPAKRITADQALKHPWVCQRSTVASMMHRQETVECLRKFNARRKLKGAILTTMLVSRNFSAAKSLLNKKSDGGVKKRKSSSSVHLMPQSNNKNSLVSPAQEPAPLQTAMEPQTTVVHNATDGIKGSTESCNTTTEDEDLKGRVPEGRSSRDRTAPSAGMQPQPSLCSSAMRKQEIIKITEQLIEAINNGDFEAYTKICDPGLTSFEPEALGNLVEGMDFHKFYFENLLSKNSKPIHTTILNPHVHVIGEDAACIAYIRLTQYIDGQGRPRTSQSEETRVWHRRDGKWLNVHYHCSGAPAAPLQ
5'-AMP-activated protein kinase catalytic subunit alpha-2 (Homo sapiens), sequence (P54646 whole entry, looked up): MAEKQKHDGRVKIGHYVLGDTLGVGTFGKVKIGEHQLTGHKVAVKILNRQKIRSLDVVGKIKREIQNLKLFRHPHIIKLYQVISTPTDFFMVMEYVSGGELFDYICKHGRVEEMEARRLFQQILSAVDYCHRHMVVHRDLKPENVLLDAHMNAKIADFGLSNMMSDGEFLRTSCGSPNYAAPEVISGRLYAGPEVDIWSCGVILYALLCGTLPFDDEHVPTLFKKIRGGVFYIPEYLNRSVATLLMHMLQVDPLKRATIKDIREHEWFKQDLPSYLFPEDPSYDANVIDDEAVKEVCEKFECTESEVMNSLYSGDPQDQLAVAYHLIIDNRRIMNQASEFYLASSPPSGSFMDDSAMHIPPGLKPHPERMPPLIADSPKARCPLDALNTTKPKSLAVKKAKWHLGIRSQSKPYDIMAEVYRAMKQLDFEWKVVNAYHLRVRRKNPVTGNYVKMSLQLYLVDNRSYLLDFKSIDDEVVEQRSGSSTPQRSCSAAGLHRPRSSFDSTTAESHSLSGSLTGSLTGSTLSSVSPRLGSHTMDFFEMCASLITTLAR

`Cn1cc(C2=C(c3cn(CCCSC(=N)N)c4ccccc34)C(=O)NC2=O)c2ccccc21`: the shift in melting temperature (ΔTm) in assay [1] was found to be 2.1 °C; in assay [2], 3.1 °C; in [3], 1.1 °C; in [4], 5.2 °C; in [5], 3.2 °C; in assay [6], 0.1 °C. Besides, the thermal shift (ΔTm) in assay [7] worked out at 4.1 °C; in assay [8], 0.6 °C; in [9], 0.7 °C; in [10], 1 °C; in [11], 12.8 °C; in [12], 0 °C. For the same compound, the thermal shift (ΔTm) turned out to be 0.9 °C in assay [13]; 0 °C in assay [14]; 5.6 °C in assay [15]; 2.6 °C in assay [16]; 10 °C in [17]; 3.8 °C in assay [18]. The ΔTm in [19] was found to be 1.6 °C; in assay [20] it was 3.9 °C.
Take `Ic1cccc(CSc2nnc(-c3ccncc3)o2)c1`: the shift in melting temperature (ΔTm) in [1] is -0.7 °C; in assay [2] it was -0.7 °C; in assay [3], -0.2 °C; in [4] it was -0.1 °C; in assay [5], -0.5 °C; in assay [6] it was -0.6 °C. Further, the ΔTm in assay [7] was 1.5 °C; in [8] it was 0.6 °C; in assay [9] it was 0.5 °C; in [10], 0.4 °C; in assay [11], 7.1 °C; in assay [12], -0.3 °C. The thermal shift (ΔTm) in assay [13] was -0.8 °C; in assay [14], -0.2 °C; in [15], 0.1 °C; in [16] it was 0.1 °C; in assay [17] it was -0.6 °C; in assay [18], -0.3 °C. Further, the ΔTm in assay [19] is -0.2 °C; in [20], -0.3 °C.
Take `O=C1Cc2c([nH]c3ccc([N+](=O)[O-])cc23)-c2ccccc2N1`: the ΔTm in [1] is 0.7 °C; in [2] it was 0.5 °C; in [3] it was 0 °C; in assay [4], -0.1 °C; in assay [5], 0.8 °C; in assay [6], 2.5 °C. Also, the ΔTm in [7] is 1 °C; in assay [8], 1.4 °C; in assay [9], 0.8 °C; in [10], 0.9 °C; in assay [11], 11.9 °C; in assay [12], 1 °C. The ΔTm came to 0.3 °C in assay [13]; 1.2 °C in assay [14]; 1.5 °C in [15]; 6.9 °C in assay [16]; 2.4 °C in [17]; 6.1 °C in [18]. In addition, the ΔTm in assay [19] stood at 0.2 °C; in [20], 2.4 °C.
In the case of `CN(C)CC1CCn2c(c(C3=C(c4c[nH]c5ccccc45)C(=O)NC3=O)c3ccccc32)C1` (stereo not given), the ΔTm in assay [1] is -0.5 °C; in assay [2], 0.3 °C; in assay [3] it was 0 °C; in [4], 1.3 °C; in assay [5], -0.2 °C; in [6], -0.8 °C. For the same compound, the ΔTm in assay [7] is 0.3 °C; in assay [8], 0.5 °C; in [9], 0.3 °C; in assay [10], 0.8 °C; in assay [11] it was 9.2 °C; in assay [12], -1.5 °C. The ΔTm in assay [13] was -0.1 °C; in assay [14], 0.6 °C; in [15] it was 1.7 °C; in assay [16], 0.1 °C; in assay [17], 7.4 °C; in assay [18] it was 0.5 °C. The thermal shift (ΔTm) is 0.5 °C in assay [19] and 0.4 °C in assay [20].
Regarding `COc1cc2ncnc(Nc3cccc(Br)c3)c2cc1OC`, the ΔTm in [1] was -0.5 °C; in assay [2] it was 0 °C; in assay [3], -0.5 °C; in assay [4] it was 0.1 °C; in [5], 0.1 °C; in [6] it was 1.4 °C. The ΔTm in assay [7] is 0.2 °C; in [8] it was 0.8 °C; in assay [9], 0.6 °C; in [10] it was -0.1 °C; in [11] it was 1.5 °C; in [12], 2.7 °C. Also, the thermal shift (ΔTm) in assay [13] is 0.3 °C; in assay [14], -0.1 °C; in assay [15], 0.9 °C; in [16], 3.4 °C; in assay [17] it was 1.5 °C; in assay [18], 2 °C. In addition, the ΔTm was found to be 0.7 °C in assay [19] and 1.4 °C in assay [20].
On to `Oc1ccc(-c2nc(-c3ccc(F)cc3)c(-c3ccncc3)[nH]2)cc1`, for which the ΔTm in assay [1] was -0.7 °C; in assay [2], -0.1 °C; in assay [3] it was -0.1 °C; in assay [4], 0.6 °C; in assay [5] it was 0.2 °C; in assay [6] it was -0.2 °C. The thermal shift (ΔTm) was -0.1 °C in assay [7]; 1 °C in assay [8]; 0.8 °C in assay [9]; 1.1 °C in assay [10]; 4.7 °C in assay [11]; 4.4 °C in [12]. Further, the ΔTm in assay [13] is 0.9 °C; in assay [14], 0.2 °C; in assay [15], 0.8 °C; in assay [16], 1.1 °C; in assay [17] it was 0.6 °C; in assay [18] it was 1.9 °C. In addition, the values for the ΔTm in [19] and in assay [20] were 0 °C and 0.5 °C, respectively.
With `CC(C)(C)c1cc(C=C2C(=O)C=CC2=O)cc(C(C)(C)C)c1O`, the shift in melting temperature (ΔTm) in assay [1] was -0.1 °C; in assay [2] it was -0.4 °C; in assay [3] it was 2.1 °C; in assay [4] it was 0.3 °C; in [5] it was -1.5 °C; in assay [6], -0.8 °C. In addition, the shift in melting temperature (ΔTm) in assay [7] is 0.1 °C; in assay [8], 0.9 °C; in [9], 0.5 °C; in assay [10], 0.2 °C; in assay [11] it was -4 °C; in [12], -7.9 °C. In addition, the shift in melting temperature (ΔTm) in assay [13] is -1.2 °C; in assay [14], -0.7 °C; in [15], -5.7 °C; in assay [16] it was 1 °C; in [17], 0.5 °C; in assay [18], -3.1 °C. Also, the results for the ΔTm in [19] and in assay [20] were -0.6 °C and 0.6 °C, respectively.

Values taken from ChEMBL document CHEMBL1145498, “A systematic interaction map of validated kinase inhibitors with Ser/Thr kinases” (Proc Natl Acad Sci U S A, 2007).
